Laboratory results from patent publication US6906098B2, “Mixed steroidal 1,2,4,5-tetraoxane compounds and methods of making and using thereof” (priority 2002, dated 2005).
In brackets after ≈: the same amount, converted by molar mass. Read-outs that look alike come from different tables or passages of the source.

How the values were obtained:
[1] = system: Plasmodium falciparum chloroquine-susceptible strain D6; test: In vitro antimalarial drug susceptibility assay (radiolabeled hypoxanthine incorporation), strain D6; type: cell-based; conditions: for Strain D6 IC50: growth inhibition, chloroquine-susceptible strain D6, 66 h incubation
[2] = system: TK-10 renal cancer cell line; test: NCI in vitro antiproliferative screen (SRB), TK-10; type: cell-based, human; conditions: TK-10, after 48 h; for GI50 / CC50: Homo sapiens; for CC50: read-out: LC50 (the source's name)
Protocol: (§1) In preliminary tests, four compounds (1B14a, 1C44, 1C45, and 1C46) were chosen by NIH-NCI for in vitro screening. See Drug discovery and development program, National Cancer Institute, Bethesda, (NCI), http://dtp.nci.nih.gov. All tetraoxanes were evaluated in the 3-cell line (lung—NCI-H460, breast—MCF7, CNS-SF-268) one dose primary anticancer assay: growth percentage after 48 hours, at 100 μM concentration of tested compound. Two compounds were eliminated at this step (1B14a and 1C46), while the acid 1C44 and primary amide 1C45 were evaluated against the full panel of 60 human tumor cell lines starting with 10^−4 M concentration of investigated compounds.
(§2) The activity of numerous compounds of the present invention against various cancer cell lines was submitted to the Developmental Therapeutics Program (DTP) at the National Cancer Institute (NCI) of the National Institutes of Health (NIH) for screening.
(§3) The DTP Human Tumor Cell Line Screen utilizes 60 different human tumor cell lines, representing leukemia, melanoma and cancers of the lung, colon, brain, ovary, breast, prostate, and kidney according to conventional methods known in the art. See e.g. Alley, M. C., et al. (1988) Cancer Research 48:589-601; Grever, M. R., et al. (1992) Seminars in Oncology 19(6):622-638; and Boyd, M. R., and Paull, K. D. (1995) Drug Development Research 34:91-109, which are herein incorporated by reference.
(§4) Generally, the human tumor cell lines of the cancer screening panel are grown in RPMI 1640 medium containing 5% fetal bovine serum and 2 mM L-glutamine. For a typical screening experiment, cells are inoculated into 96 well microtiter plates in 100 μl at plating densities ranging from 5,000 to 40,000 cells/well depending on the doubling time of individual cell lines. After cell inoculation, the microtiter plates are incubated at 37° C., 5% CO2, 95% air and 100% relative humidity for 24 hours prior to addition of the compounds to be tested.
(§5) After 24 hours, two plates of each cell line are fixed in situ with TCA, to represent a measurement of the cell population for each cell line at the time of drug addition (Tz). Experimental drugs are solubilized in dimethyl sulfoxide at 400-fold the desired final maximum test concentration and stored frozen prior to use. At the time of drug addition, an aliquot of frozen concentrate is thawed and diluted to twice the desired final maximum test concentration with complete medium containing 50 μg/ml gentamicin. Additional four, 10-fold or ½ log serial dilutions are made to provide a total of five drug concentrations plus control. Aliquots of 100 μl of these different drug dilutions are added to the appropriate microtiter wells already containing 100 μl of medium, resulting in the required final drug concentrations.
(§6) Following drug addition, the plates are incubated for an additional 48 hours at 37° C., 5% CO2, 95% air, and 100% relative humidity. For adherent cells, the assay is terminated by the addition of cold TCA. Cells are fixed in situ by the gentle addition of 50 μl of cold 50% (w/v) TCA (final concentration, 10% TCA) and incubated for 60 minutes at 4° C. The supernatant is discarded, and the plates are washed five times with tap water and air dried. Sulforhodamine B (SRB) solution (100 μl) at 0.4% (w/v) in 1% acetic acid is added to each well, and plates are incubated for 10 minutes at room temperature. […]

SR leukemia cell line = test: NCI in vitro antiproliferative screen (SRB), SR; type: cell-based, human; conditions: after 48 h; for GI50 / CC50: Homo sapiens; for CC50: read-out: LC50 (the source's name)
Protocol: as §1, §2, §3, §4, §5, §6

[3] = system: D6 and W2 P. falciparum clones; type: cell-based, Plasmodium falciparum; conditions: IC50 (W2)/IC50 (D6) ratio
[4] = system: Plasmodium falciparum chloroquine-resistant strain W2; test: microbe, parasite or virus in culture; type: cell-based; conditions: for Strain W2 IC50: growth inhibition, chloroquine-resistant strain W2, 66 h incubation
[5] = system: IGROV1 ovarian cancer cell line; test: NCI in vitro antiproliferative screen (SRB), IGROV1; type: cell-based, human; conditions: IGROV1, after 48 h
Protocol: as §1, §2, §3, §4, §5, §6

[6] = system: Mycobacterium tuberculosis H37Rv (ATCC 27294); test: Primary screen, Microplate Alamar Blue Assay (MABA), percent inhibition; type: cell-based; conditions: primary screening at 6.25 μg/ml; for inhibition at 6.25 µg/mL: Mycobacterium tuberculosis
Outline: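 Single-concentration screen at 6.25 μg/ml (or molar equivalent of the heaviest congener in a series) against H37Rv grown in BACTEC 12B medium. Growth read by Microplate Alamar Blue Assay, reported as percent inhibition.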

[7] = system: UO-31 renal cancer cell line; test: NCI in vitro antiproliferative screen (SRB), UO-31; type: cell-based, human; conditions: UO-31, after 48 h; for GI50 / CC50: Homo sapiens; for CC50: read-out: LC50 (the source's name)
Protocol: as §1, §2, §3, §4, §5, §6

[8] = system: MALME-3M melanoma cancer cell line; test: NCI in vitro antiproliferative screen (SRB), MALME-3M; type: cell-based, human; conditions: for GI50 / CC50: Homo sapiens; for CC50: read-out: LC50 (the source's name)
Protocol: as §1, §2, §3, §4, §5, §6

M. tuberculosis H37Rv = test: Minimum inhibitory concentration (MIC) in the MABA; type: cell-based, Mycobacterium tuberculosis
Outline: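 Run under the NIAID TAACF screening program against M. tuberculosis by fluorescence read-out. MIC taken as the lowest concentration giving 90% reduction in fluorescence relative to controls.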

[9] = system: KM-12 colon cancer cell line; test: NCI in vitro antiproliferative screen (SRB), KM-12; type: cell-based, human; conditions: KM-12, after 48 h; for GI50 / CC50: Homo sapiens, KM12; for CC50: read-out: LC50 (the source's name)
Protocol: as §1, §2, §3, §4, §5, §6

VERO cells [10] = conditions: ratio of IC50 in VERO cells to MIC (M. tuberculosis H37Rv)
VERO cells [11] = test: cells; conditions: Chlorocebus sabaeus, Table 5
[12] = Table 3, H37Rv, read-out: Inhibition (%)
[13] = Table 5, Alamar assay, read-out: % Inhib
[14] = MALME-3M, after 48 h, read-out: GI50
[15] = Mycobacterium tuberculosis, H37RV, Table 3, H37Rv, read-out: MIC
[16] = Mycobacterium tuberculosis, H37RV, Table 5, Alamar assay, M. tuberculosis H37Rv, read-out: MIC
[17] = Table 5, Alamar assay, M. tuberculosis H37Rv

Row | Structure (SMILES) | Strain D6 IC50 [1] | GI50 [2] | CC50 [2] | TGI [2] | GI50 (SR leukemia cell line) | CC50 (SR leukemia cell line) | Resistance Index [3] | Strain W2 IC50 [4] | GI50 ([5]; Homo sapiens, IGROV-1) | TGI [5] | inhibition at 6.25 µg/mL [6, 13] | GI50 [7] | CC50 [7] | TGI [7] | GI50 [8, 14] | CC50 ([8]; MALME-3M, after 48 h) | TGI ([8]; MALME-3M, after 48 h) | GI50 [9] | CC50 [9] | TGI [9] | further results
1 | CC(=O)O[C@H]1CC2C(C3CC[C@H](C(C)CCC(N)=O)[C@]31C)[C@H](OC(C)=O)C[C@@H]1CC3(CC[C@]21C)OOC1(CCC(c2ccccc2)CC1)OO3 (single isomer, unassigned) [Compound 1C45, 7α,12α-Diacetoxy-5β-cholan-24-amide-3-spiro-6′-(1′,2′,4′,5′-tetraoxacyclohexane)-3′-spiro-1″-((4″R or S)-phenyl)cyclohexane] | 0.00719 µg/mL | 2.7 µM | 8.07 µM | 4.66 µM | 0.29 µM | 100 µM | 1.02 | 0.00736 µg/mL | 0.295 µM | 1.11 µM | 93% | 0.36 µM | 4.57 µM | 1.35 µM | 0.02 µM | 37.3 µM | 3.99 µM | 1.19 µM | 7.15 µM | 2.92 µM | inhibition at 6.25 µg/mL [6, 12]: 93%; GI50 ([8]; Malme-3M): 0.02 µM; MIC (M. tuberculosis H37Rv; [15]): 6.25 µg/mL (≈ 8.98 µM); MIC (M. tuberculosis H37Rv; [16]): 6.25 µg/mL (≈ 8.98 µM)
2 | CCC1CCC2(CC1)OOC1(CC[C@]3(C)C4C[C@H](OC(C)=O)[C@@]5(C)C(CC[C@@H]5C(C)CCC(=O)O)C4[C@H](OC(C)=O)C[C@@H]3C1)OO2 (single isomer, unassigned) [9j/1C39, 7α,12α-Diacetoxy-5β-cholan-24-oic acid-3-spiro-6′-(1′,2′,4′,5′-tetraoxacyclohexane)-3′-spiro-1″-((4″S or R)-ethyl)cyclohexane] | 0.00638 µg/mL |  |  |  |  |  | 1.47 | 0.00936 µg/mL |  |  |  |  |  |  |  |  |  |  |  |  | SI (selectivity index) (VERO cells [10]): 0.15; % Inhib ([6]; Table 5, Alamar assay): 95%; MIC (M. tuberculosis H37Rv; [17]): 6.25 µg/mL (≈ 9.63 µM); IC50 (VERO cells [11]): 0.95 µg/mL (≈ 1.46 µM)
3 | CC(=O)O[C@H]1CC2C(C3CC[C@H](C(C)CCC(=O)O)[C@]31C)[C@H](OC(C)=O)C[C@@H]1CC3(CC[C@]21C)OOC1(CCC(c2ccccc2)CC1)OO3 (single isomer, unassigned) [Compound 1C44, 7α,12α-Diacetoxy-5β-cholan-24-oic acid-3-spiro-6′-(1′,2′,4′,5′-tetraoxacyclohexane)-3′-spiro-1″-((4″R or S)-phenyl)cyclohexane] | 0.00619 µg/mL | 1.99 µM | 27 µM | 5.94 µM | 1.83 µM | 100 µM | 0.98 | 0.00609 µg/mL | 0.26 µM | 0.82 µM | 94% | 1.83 µM | 6.73 µM | 3.51 µM | 2.27 µM | 47 µM | 9.14 µM | 1.96 µM | 40.1 µM | 5.36 µM | SI (selectivity index) (VERO cells [10]): 0.17; TGI (SR leukemia cell line): 5.92 µM; LC50 (concentration killing 50% of cells) ([5]; Homo sapiens, IGROV-1): 3.76 µM; inhibition at 6.25 µg/mL [6, 12]: 94%; MIC (M. tuberculosis H37Rv; [15]): 6.25 µg/mL (≈ 8.97 µM); MIC (M. tuberculosis H37Rv; [16]): 6.25 µg/mL (≈ 8.97 µM); IC50 (VERO cells [11]): 1.07 µg/mL (≈ 1.54 µM)
4 | CCNC(=O)CCC(C)[C@H]1CCC2C3C(C[C@H](OC(C)=O)[C@@]21C)[C@@]1(C)CCC2(C[C@H]1C[C@H]3OC(C)=O)OOC1(CCC(CC)CC1)OO2 (single isomer, unassigned) [27/1C37, N-Ethyl-7α,12α-Diacetoxy-5β-cholan-24-amide-3-spiro-6′-(1′,2′,4′,5′-tetraoxacyclohexane)-3′-spiro-1″-((4″R or S)-ethyl)cyclohexane] |  |  |  |  |  |  | 0.48 |  |  |  | 96% |  |  |  |  |  |  |  |  |  | SI (selectivity index) (VERO cells [10]): 1.22; IC50 ([1]; Plasmodium falciparum, D6, 66 h, read-out: Strain D6 IC50, growth inhibition, chloroquine-susceptible strain D6, 66 h incubation): 0.0134 µg/mL (≈ 0.0198 µM); IC50 ([4]; Plasmodium falciparum, W2, 66 h, read-out: Strain W2 IC50, growth inhibition, chloroquine-resistant strain W2, 66 h incubation): 0.00646 µg/mL (≈ 0.00956 µM); MIC (M. tuberculosis H37Rv; [17]): 1.56 µg/mL (≈ 2.31 µM); IC50 (VERO cells [11]): 1.91 µg/mL (≈ 2.83 µM)
5 | C[C@@H]1CC[C@H]2[C@@H](C)C(=O)O[C@@H]3O[C@@]4(C)CC[C@@H]1[C@]32OO4 [Artemisinin, reference compound] |  | 100 µM | 100 µM | 100 µM | 100 µM | 100 µM |  |  | 79.4 µM | 100 µM |  | 79.4 µM | 100 µM | 100 µM | 100 µM | 100 µM | 100 µM | 100 µM | 100 µM | 100 µM | TGI (SR leukemia cell line): 100 µM
6 | CC(=O)O[C@H]1C(=O)[C@@]2(C)[C@H]([C@H](OC(=O)c3ccccc3)[C@]3(O)C[C@H](OC(=O)[C@H](O)[C@@H](NC(=O)c4ccccc4)c4ccccc4)C(C)=C1C3(C)C)[C@]1(OC(C)=O)CO[C@@H]1C[C@@H]2O [Paclitaxel, reference compound] |  | 0.25 µM | 79.4 µM | 50.1 µM | 0.079 µM | 63.1 µM |  |  | 0.032 µM | 79.4 µM |  | 1.58 µM | 100 µM | 39.8 µM | 2.51 µM | 79.4 µM | 50.1 µM | 0.0079 µM | 100 µM | 79.4 µM | TGI (SR leukemia cell line): 63.1 µM
